Results published in ChEMBL document CHEMBL1201862, “PubChem BioAssay data set” (2004).
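Tested at 5 concentrations; 48 h exposure; 96-well plates; endpoints linearly interpolated, else capped at highest concentration. At the GI50, growth is halved.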 Calls of active or inactive are those of the source. Rule as the data show it: active = GI50 up to about 1.1 µM and inactive = higher.

Tests used:
Assay in all cases: DTP human tumour cell line panel, 48 h
[1] = tested on: 786-0
[2] = tested on: A498
[3] = tested on: A549
[4] = tested on: ACHN
[5] = tested on: BT-549
[6] = tested on: CAKI-1
[7] = tested on: CCRF-CEM
[8] = tested on: COLO 205
[9] = tested on: DU-145
[10] = tested on: EKVX
[11] = tested on: HCC 2998
[12] = tested on: HCT-116
[13] = tested on: HCT-15
[14] = tested on: HL-60
[15] = tested on: HOP-62
[16] = tested on: HOP-92
[17] = tested on: HT-29
[18] = tested on: Hs-578T
[19] = tested on: IGROV-1
[20] = tested on: K562
[21] = tested on: KM12
[22] = tested on: LOX IMVI
[23] = tested on: M14
[24] = tested on: MCF7
[25] = tested on: MDA-MB-231
[26] = tested on: MDA-MB-435
[27] = tested on: MOLT-4
[28] = tested on: Malme-3M
[29] = tested on: NCI-H226
[30] = tested on: NCI-H23
[31] = tested on: NCI-H460
[32] = tested on: NCI-H522
[33] = tested on: NCI/ADR-RES
[34] = tested on: OVCAR-3
[35] = tested on: OVCAR-4
[36] = tested on: OVCAR-5
[37] = tested on: OVCAR-8
[38] = tested on: PC-3
[39] = tested on: RPMI-8226
[40] = tested on: RXF 393
[41] = tested on: SF-268
[42] = tested on: SF-295
[43] = tested on: SK-MEL-28
[44] = tested on: SK-MEL-2
[45] = tested on: SK-MEL-5
[46] = tested on: SK-OV-3
[47] = tested on: SN12C
[48] = tested on: SNB-19
[49] = tested on: SNB-75
[50] = tested on: SR
[51] = tested on: SW-620
[52] = tested on: T47D
[53] = tested on: U-251
[54] = tested on: UACC-257
[55] = tested on: UACC-62
[56] = tested on: UO-31
[57] = tested on: SF-539
[58] = tested on: TK-10
[59] = tested on: MDA-N

`CC1(C)CCCCCC(C)(CCCO)C1=O` (centres undefined) was tested, and the GI50 [1] was > 100 µM (inactive), the GI50 [2] was > 100 µM (inactive) and the GI50 [3] was > 100 µM (inactive). For the same compound, the GI50 [4] was > 100 µM (inactive), the GI50 [5] was > 100 µM (inactive) and the GI50 [6] was > 100 µM (inactive). The GI50 [7] was > 100 µM (inactive), the GI50 [8] was > 100 µM (inactive) and the GI50 [9] was > 100 µM (inactive). The GI50 [10] was > 100 µM (inactive), the GI50 [11] was > 100 µM (inactive) and the GI50 [12] was > 100 µM (inactive). The GI50 [13] was > 100 µM, the GI50 [14] was > 100 µM (inactive) and the GI50 [15] was > 100 µM (inactive). For the same compound, the GI50 [16] was > 100 µM (inactive), the GI50 [17] was > 100 µM (inactive) and the GI50 [18] was > 100 µM (inactive). The GI50 [19] was > 100 µM (inactive), the GI50 [20] was > 100 µM (inactive) and the GI50 [21] was > 100 µM (inactive). For the same compound, the GI50 [22] was > 100 µM (inactive), the GI50 [23] was > 100 µM (inactive) and the GI50 [24] was > 100 µM (inactive). The GI50 [25] was > 100 µM (inactive), the GI50 [26] was > 100 µM (inactive) and the GI50 [27] was > 100 µM (inactive). The GI50 [28] was > 100 µM (inactive), the GI50 [29] was > 100 µM (inactive) and the GI50 [30] was > 100 µM (inactive). The GI50 [31] was > 100 µM (inactive), the GI50 [32] was > 100 µM (inactive) and the GI50 [33] was > 100 µM (inactive). For the same compound, the GI50 [34] was > 100 µM (inactive), the GI50 [35] was > 100 µM (inactive) and the GI50 [36] was > 100 µM (inactive). The GI50 [37] was > 100 µM (inactive), the GI50 [38] was > 100 µM (inactive) and the GI50 [39] was > 100 µM (inactive). The GI50 [40] was > 100 µM (inactive), the GI50 [41] was > 100 µM (inactive) and the GI50 [42] was > 100 µM (inactive). The GI50 [43] was > 100 µM (inactive), the GI50 [44] was > 100 µM (inactive) and the GI50 [45] was > 100 µM (inactive). For the same compound, the GI50 [46] was > 100 µM (inactive), the GI50 [47] was > 100 µM (inactive) and the GI50 [48] was > 100 µM (inactive). The GI50 [49] was > 100 µM (inactive), the GI50 [50] was > 100 µM (inactive) and the GI50 [51] was > 100 µM (inactive). The GI50 [52] was > 100 µM (inactive), the GI50 [53] was > 100 µM (inactive) and the GI50 [54] was > 100 µM (inactive). For the same compound, the GI50 [55] was > 100 µM (inactive) and the GI50 [56] was > 100 µM (inactive).

`OC(c1ccco1)C(F)(F)c1nc2ccccc2o1` (centres undefined) was tested, and the GI50 [1] was > 100 µM (inactive), the GI50 [2] was 62.1 µM (inactive) and the GI50 [4] was > 100 µM (inactive). The GI50 [5] was > 100 µM (inactive), the GI50 [6] was > 100 µM (inactive) and the GI50 [7] was > 100 µM (inactive). For the same compound, the GI50 [8] was > 100 µM (inactive), the GI50 [9] was > 100 µM (inactive) and the GI50 [10] was > 100 µM (inactive). The GI50 [11] was > 100 µM (inactive), the GI50 [12] was > 100 µM (inactive) and the GI50 [13] was > 100 µM. The GI50 [14] was > 100 µM (inactive), the GI50 [15] was > 100 µM (inactive) and the GI50 [16] was > 100 µM (inactive). The GI50 [17] was > 100 µM (inactive), the GI50 [18] was > 100 µM (inactive) and the GI50 [19] was > 100 µM (inactive). The GI50 [20] was 69.8 µM (inactive), the GI50 [21] was > 100 µM (inactive) and the GI50 [22] was > 100 µM (inactive). For the same compound, the GI50 [23] was 29.5 µM (inactive), the GI50 [24] was 41.1 µM (inactive) and the GI50 [25] was > 100 µM (inactive). For the same compound, the GI50 [26] was > 100 µM (inactive), the GI50 [27] was > 100 µM (inactive) and the GI50 [29] was > 100 µM (inactive). The GI50 [30] was > 100 µM (inactive), the GI50 [31] was > 100 µM (inactive) and the GI50 [33] was > 100 µM (inactive). For the same compound, the GI50 [35] was > 100 µM (inactive), the GI50 [37] was > 100 µM (inactive) and the GI50 [38] was > 100 µM (inactive). The GI50 [39] was > 100 µM (inactive), the GI50 [40] was > 100 µM (inactive) and the GI50 [41] was > 100 µM (inactive). For the same compound, the GI50 [42] was 56.8 µM (inactive), the GI50 [57] was > 100 µM (inactive) and the GI50 [43] was > 100 µM (inactive). The GI50 [44] was > 100 µM (inactive), the GI50 [45] was > 100 µM (inactive) and the GI50 [46] was 68.4 µM (inactive). For the same compound, the GI50 [48] was > 100 µM (inactive), the GI50 [49] was > 100 µM (inactive) and the GI50 [50] was > 100 µM (inactive). For the same compound, the GI50 [51] was > 100 µM (inactive), the GI50 [52] was 61.5 µM (inactive) and the GI50 [58] was > 100 µM (inactive). The GI50 [53] was > 100 µM (inactive), the GI50 [54] was > 100 µM (inactive) and the GI50 [55] was > 100 µM (inactive). The GI50 [56] was 69.2 µM (inactive).

For `Clc1cccc(-c2nc3cccc4c3n2Cc2ncccc2-4)c1`, the GI50 [1] was 17.6 µM (inactive), the GI50 [2] was > 100 µM (inactive) and the GI50 [3] was 21.9 µM (inactive). The GI50 [4] was 8.2 µM (inactive), the GI50 [5] was > 100 µM (inactive) and the GI50 [6] was 8.02 µM (inactive). For the same compound, the GI50 [7] was > 100 µM (inactive), the GI50 [8] was > 100 µM (inactive) and the GI50 [9] was > 100 µM (inactive). For the same compound, the GI50 [10] was > 100 µM (inactive), the GI50 [11] was > 100 µM (inactive) and the GI50 [12] was > 100 µM (inactive). The GI50 [13] was > 100 µM, the GI50 [15] was 36.1 µM (inactive) and the GI50 [16] was 44.6 µM (inactive). For the same compound, the GI50 [17] was > 100 µM (inactive), the GI50 [19] was 54.3 µM (inactive) and the GI50 [20] was > 100 µM (inactive). For the same compound, the GI50 [21] was > 100 µM (inactive), the GI50 [23] was > 100 µM (inactive) and the GI50 [24] was > 100 µM (inactive). The GI50 [25] was 94.2 µM (inactive), the GI50 [26] was > 100 µM (inactive) and the GI50 [59] was > 100 µM (inactive). The GI50 [28] was > 100 µM (inactive), the GI50 [29] was 11.8 µM (inactive) and the GI50 [30] was > 100 µM (inactive). The GI50 [31] was 6.67 µM (inactive), the GI50 [32] was > 100 µM (inactive) and the GI50 [33] was > 100 µM (inactive). The GI50 [34] was 32.1 µM (inactive), the GI50 [35] was 36 µM (inactive) and the GI50 [36] was > 100 µM (inactive). The GI50 [37] was 92.3 µM (inactive), the GI50 [38] was 73.6 µM (inactive) and the GI50 [40] was 21.9 µM (inactive). The GI50 [41] was 32.8 µM (inactive), the GI50 [42] was 41.6 µM (inactive) and the GI50 [57] was 41.8 µM (inactive). For the same compound, the GI50 [43] was > 100 µM (inactive), the GI50 [46] was 96.8 µM (inactive) and the GI50 [47] was > 100 µM (inactive). For the same compound, the GI50 [48] was 23.9 µM (inactive), the GI50 [49] was 9.04 µM (inactive) and the GI50 [50] was 24 µM (inactive). The GI50 [51] was > 100 µM (inactive), the GI50 [52] was > 100 µM (inactive) and the GI50 [58] was 42.2 µM (inactive). For the same compound, the GI50 [53] was 30.3 µM (inactive), the GI50 [54] was > 100 µM (inactive) and the GI50 [55] was 56.6 µM (inactive).
